From patent US10300053B2, “Quinoline carboxamides for use in the treatment of leukemia” (Active Biotech AB, priority 2014, dated 2019)

Key:
AML = conditions: 0.2 mg/kg body weight twice weekly for 2 years following ABMT for AML in remission; cited from earlier work
[1] = test system: B-cell leukemia (BCL1) cells; conditions: BALB/c mice inoculated with BCL1 cells; cited from earlier work
[2] = test system: AL-7015-P2 leukemic cells; assay: Patient Derived Xenograft (PDX) model AL-7015 of acute lymphocytic leukemia; format: in vivo, NOD/SCID mice
Protocol: Tasquinimod was tested in a Patient Derived Xenograft (PDX) model AL-7015 provided by Crown Bioscience In. (www.crownbio.com). Cells derived from a patient with B-cell ALL were used. On Day 0, NOD/SCID mice were inoculated i.v. with 70×10^6 AL-7015-P2 leukemic cells per mouse. From day 1 to termination mice were treated with tasquinimod ad lib. in the drinking water at 30 mg/kg. Mice were terminated, as soon as any sign of morbidity was observed. The median survival time for the vehicle group was 51 days, while it was 99 days for the treatment group (p<0.0001) (FIG. 2). In the treatment group, the tumor burden remained close to zero for at least 10 weeks, long after the vehicle group had reached 100% tumor burden (FIG. 3).

Compound	benefit over placebo regarding relapse (AML)	benefit over placebo regarding survival (AML)	impact on graft survival [1]	impact on graft versus leukemia (GVL) effects [1]	median survival time ([2]; 30 mg/kg ad lib. in drinking water from day 1 to termination, vehicle group 51 days, p<0.0001)	tumor burden ([2]; 30 mg/kg in drinking water, for at least 10 weeks, long after the vehicle group had reached 100% tumor burden)
CN(C(=O)c1c(O)c2ccccc2n(C)c1=O)c1ccccc1 [Roquinimex, 4-hydroxy-N, 1-dimethyl-2-oxo-N-phenyl-1,2-dihydroquinoline-3-carboxamide]	no benefit	no benefit	no impact	no impact	–	–
COc1cccc2c1c(O)c(C(=O)N(C)c1ccc(C(F)(F)F)cc1)c(=O)n2C [tasquinimod, 4-hydroxy-5-methoxy-N,1-dimethyl-2-oxo-N-[4-(trifluoromethyl)phenyl]-1,2-dihydroquinoline-3-carboxamide]	–	–	–	–	99 days	close to zero
